pEC50, pKi: −log10 of the molar value. Non-standard residues stand in square brackets, D forms with d. Residues, ends and D or L forms follow the SMILES beside them. 2Nal = N[C@@H](Cc1ccc2ccccc2c1)C(=O)O
Assays:
[1] = target: T1, Melanocyte-stimulating hormone receptor (Homo sapiens, UniProt Q01726); test: Displacement of europium labeled NDP-alpha-MSH from human MC1R expressed in HEK293 cells; assay type: cell-based
[2] = target: T2, Melanocortin receptor 3 (Homo sapiens, UniProt P41968); test: Displacement of europium labeled NDP-alpha-MSH from human MC3R expressed in HEK293 cells; assay type: cell-based
[3] = target: T3, Melanocortin receptor 4 (Homo sapiens, UniProt P32245); test: Displacement of europium labeled NDP-alpha-MSH from human MC4R expressed in HEK293 cells; assay type: cell-based
[4] = target: T1, Melanocyte-stimulating hormone receptor; test: Agonist activity at human MC1R transfected in HEK293 cells; assay type: functional, cell-based
[5] = target: T2, Melanocortin receptor 3; test: Agonist activity at human MC3R transfected in HEK293 cells; assay type: functional, cell-based
[6] = target: T3, Melanocortin receptor 4; test: Agonist activity at human MC4R transfected in HEK293 cells; assay type: functional, cell-based

T2 sequence (P41968 whole entry): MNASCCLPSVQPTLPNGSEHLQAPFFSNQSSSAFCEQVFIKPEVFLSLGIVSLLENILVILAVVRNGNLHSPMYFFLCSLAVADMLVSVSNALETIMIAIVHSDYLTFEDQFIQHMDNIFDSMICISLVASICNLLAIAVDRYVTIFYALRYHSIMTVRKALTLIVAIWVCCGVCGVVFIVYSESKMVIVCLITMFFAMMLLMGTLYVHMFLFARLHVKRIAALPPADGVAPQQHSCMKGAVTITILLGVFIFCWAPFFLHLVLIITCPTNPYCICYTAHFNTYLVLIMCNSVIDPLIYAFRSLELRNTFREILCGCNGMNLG
T3 sequence (P32245 whole entry): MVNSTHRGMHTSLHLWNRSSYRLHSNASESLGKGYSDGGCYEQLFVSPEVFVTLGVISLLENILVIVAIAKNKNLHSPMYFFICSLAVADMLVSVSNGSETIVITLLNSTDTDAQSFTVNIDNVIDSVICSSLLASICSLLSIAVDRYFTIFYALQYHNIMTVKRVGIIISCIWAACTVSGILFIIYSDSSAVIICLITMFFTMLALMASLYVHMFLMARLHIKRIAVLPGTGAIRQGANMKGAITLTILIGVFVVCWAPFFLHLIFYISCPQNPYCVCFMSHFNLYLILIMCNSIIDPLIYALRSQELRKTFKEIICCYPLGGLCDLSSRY
T1 sequence (Q01726 whole entry): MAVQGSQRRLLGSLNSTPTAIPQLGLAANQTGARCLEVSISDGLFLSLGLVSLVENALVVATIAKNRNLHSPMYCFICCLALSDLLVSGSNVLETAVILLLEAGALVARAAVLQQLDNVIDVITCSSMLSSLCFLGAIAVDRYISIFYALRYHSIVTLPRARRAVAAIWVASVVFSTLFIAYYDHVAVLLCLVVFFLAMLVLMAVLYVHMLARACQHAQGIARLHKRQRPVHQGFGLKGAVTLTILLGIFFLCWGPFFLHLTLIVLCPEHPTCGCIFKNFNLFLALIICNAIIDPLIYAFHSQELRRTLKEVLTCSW

Compound | pKi [1] | pKi [2] | pKi [3] | pEC50 [4] | pEC50 [5] | pEC50 [6]
N=C(N)NCCC[C@@H]1C[C@H](OCc2ccc3ccccc3c2)CN1C(=O)[C@@H](Cc1ccccc1)NC(=O)[C@@H]1Cc2ccccc2CN1 | 5.85 | 5.38 | 6.17 | 5.87 | 5.50 | 6.34
CNC(=O)[C@H](Cc1ccc2ccccc2c1)NC(=O)[C@H](CCCN=C(N)N)NC(=O)[C@H](N)Cc1ccccc1 | 5.36 | 4.65 | 5.70 | 4.70 |  | 6.09
NC(=O)C[C@H](N)C(=O)N[C@H](Cc1ccccc1)C(=O)N1C[C@@H](OCc2ccc3ccccc3c2)C[C@@H]1CCCN=C(N)N | 6.99 | 6.08 | 6.73 | 8.37 | 8.00 | 8.10
CC(=O)N[C@@H](Cc1ccc(O)cc1)C(=O)N[C@H](Cc1ccccc1)C(=O)N1C[C@@H](OCc2ccc3ccccc3c2)C[C@H]1CCCN=C(N)N | 5.61 | 5.54 | 6.31 | 5.74 | 5.93 | 6.60
CC(=O)N[C@@H](Cc1c[nH]cn1)C(=O)N[C@@H](Cc1ccccc1)C(=O)N[C@@H](CCCN=C(N)N)C(=O)N[C@@H](Cc1c[nH]c2ccccc12)C(N)=O | 7.46 | 5.54 |  | 7.85 | 6.61 | 
CNC(=O)[C@H](Cc1ccc2ccccc2c1)NC(=O)[C@H](CCCN=C(N)N)NC(=O)[C@@H](Cc1ccccc1)NC(=O)[C@H](Cc1c[nH]cn1)NC(C)=O | 7.89 | 5.92 | 7.54 | 7.85 | 6.27 | 8.24
NC(N)=NCCNC(=O)[C@H]1C[C@@H](OCc2ccc3ccccc3c2)CN1C(=O)[C@@H](Cc1ccccc1)NC(=O)C1CCNCC1 | 6.92 | 5.50 | 5.99 | 6.98 | 5.61 | 6.30
N=C(N)NCCC[C@@H]1C[C@@H](OCc2ccc3ccccc3c2)CN1C(=O)[C@@H](Cc1ccccc1)NC(=O)[C@@H]1CCCCN1 | 6.47 | 5.13 | 5.77 | 6.35 |  | 4.96
CC(=O)N[C@@H](Cc1c[nH]cn1)C(=O)N[C@H](Cc1ccccc1)C(=O)N1C[C@H](OCc2ccc3ccccc3c2)C[C@H]1CCCN=C(N)N | 8.33 | 5.14 | 5.54 | 8.10 | 5.43 | 6.01
CNC(=O)[C@H](Cc1ccc2ccccc2c1)NC(=O)[C@H](CCCN=C(N)N)NC(=O)[C@@H](Cc1ccccc1)NC(=O)[C@H](Cc1ccc(O)cc1)NC(C)=O (Ac-Y[dF]R[2Nal]-NHMe) |  |  |  | 4.70 |  | 
N=C(N)NCCC[C@H]1C[C@H](OCc2ccc3ccccc3c2)CN1C(=O)[C@@H](Cc1ccccc1)NC(=O)[C@@H]1CCCCN1 | 6.90 | 5.90 | 6.92 | 7.55 | 6.54 | 7.27
CC(=O)N[C@@H](Cc1ccc(O)cc1)C(=O)N[C@H](Cc1ccccc1)C(=O)N1C[C@H](OCc2ccc3ccccc3c2)C[C@H]1CCCN=C(N)N | 5.77 | 4.72 | 5.63 | 5.76 |  | 4.70
N=C(N)NCCC[C@H]1C[C@@H](OCc2ccc3ccccc3c2)CN1C(=O)[C@@H](Cc1ccccc1)NC(=O)[C@@H]1Cc2ccccc2CN1 | 7.38 | 7.07 | 8.00 | 7.01 | 6.63 | 8.00
CC(=O)N[C@@H](CCC(N)=O)C(=O)N[C@H](Cc1ccccc1)C(=O)N1C[C@H](OCc2ccc3ccccc3c2)C[C@@H]1C(=O)NCCN=C(N)N | 6.05 | 5.83 | 6.20 | 6.48 | 6.25 | 6.74
NC(N)=NCCC[C@H]1C[C@@H](OCc2ccc3ccccc3c2)CN1C(=O)[C@H](N)Cc1ccccc1 | 6.42 | 5.91 | 6.52 | 6.82 | 6.06 | 6.54
N=C(N)NCCC[C@@H]1C[C@@H](OCc2ccc3ccccc3c2)CN1C(=O)[C@@H](Cc1ccccc1)NC(=O)[C@@H]1Cc2ccccc2CN1 | 7.72 | 5.09 | 5.36 | 7.72 | 5.83 | 5.96
N=C(N)NCCC[C@H]1C[C@H](OCc2ccc3ccccc3c2)CN1C(=O)[C@@H](Cc1ccccc1)NC(=O)[C@@H]1Cc2ccccc2CN1 | 6.25 | 6.28 | 7.01 | 7.14 | 6.67 | 7.44
N=C(N)NCCNC(=O)[C@H]1C[C@@H](OCc2ccc3ccccc3c2)CN1C(=O)[C@@H](Cc1ccccc1)NC(=O)[C@@H]1CCCCN1 | 6.20 | 5.41 | 5.86 | 6.41 | 5.75 | 6.53
NC(N)=NCCC[C@H]1C[C@@H](OCc2ccc3ccccc3c2)CN1C(=O)[C@@H](Cc1ccccc1)NC(=O)CCc1ccccc1 | 6.21 | 6.39 | 6.86 | 6.23 | 5.69 | 6.58
NC(=O)C[C@H](N)C(=O)N[C@H](Cc1ccccc1)C(=O)N1C[C@H](OCc2ccc3ccccc3c2)C[C@H]1CCCN=C(N)N | 6.35 | 4.81 | 5.18 | 6.40 |  | 4.70
CC(=O)N[C@@H](Cc1c[nH]cn1)C(=O)N[C@H](Cc1ccccc1)C(=O)N1C[C@@H](OCc2ccc3ccccc3c2)C[C@@H]1CCCN=C(N)N | 8.89 | 6.93 | 7.24 | 10.35 | 8.89 | 8.64
CC(=O)N[C@@H](CCC(N)=O)C(=O)N[C@H](Cc1ccccc1)C(=O)N1C[C@H](OCc2ccc3ccccc3c2)C[C@@H]1CCCN=C(N)N | 7.46 | 7.30 | 7.74 | 7.35 | 7.38 | 8.37
N=C(N)NCCC[C@@H]1C[C@H](OCc2ccc3ccccc3c2)CN1C(=O)[C@@H](Cc1ccccc1)NC(=O)[C@@H]1CCCCN1 | 5.75 | 5.14 | 5.65 | 5.97 |  | 6.29
NC(N)=NCCNC(=O)[C@H]1C[C@@H](OCc2ccc3ccccc3c2)CN1C(=O)[C@@H](Cc1ccccc1)NC(=O)[C@@H](N)Cc1c[nH]cn1 | 7.82 | 6.15 | 6.12 | 7.62 | 6.58 | 6.60
NC(N)=NCCC[C@H]1C[C@@H](OCc2ccc3ccccc3c2)CN1C(=O)[C@@H](Cc1ccccc1)NC(=O)[C@@H]1CCCCN1 | 7.40 | 6.81 | 7.51 | 7.52 | 6.59 | 7.85
NC(=O)C[C@H](N)C(=O)N[C@H](Cc1ccccc1)C(=O)N1C[C@@H](OCc2ccc3ccccc3c2)C[C@H]1CCCN=C(N)N | 5.80 | 4.54 | 5.09 | 6.28 | 5.52 | 5.79
CC(=O)N[C@@H](Cc1cnc[nH]1)C(=O)N[C@H](Cc1ccccc1)C(=O)N1C[C@H](OCc2ccc3ccccc3c2)C[C@@H]1CCCN=C(N)N | 9.19 | 7.59 | 7.77 | 9.52 | 7.82 | 8.43
